Data: patent publication US9937192B2, “Combination therapy to treat mycobacterium diseases” (priority 2012, dated 2018)
Values after ≈ are worked out from the molar mass of the structure shown. Like-named read-outs stand apart in the source and are kept apart here.

Columns and labels:
[1] = test system: intracellular M. tuberculosis in THP-1 cells; assay: microbe, parasite or virus in culture; assay type: cell-based; conditions: Mycobacterium tuberculosis, H37RA; for MIC: read-out: MIC, Macrophage Cells; for IC50: THP-1, 120 h, read-out: Mtb H37Ra in THP1 Cells (IC50)
M. tuberculosis = assay: microbe, parasite or virus in culture; assay type: cell-based
M. tuberculosis H37Rv [2] = conditions: cited from earlier work
M. tuberculosis H37Rv [3] = assay: Monotherapy against established TB in mice (dose-ranging activity study); assay type: in vivo; conditions: BALB/c mice, M. tuberculosis H37Rv, 150 mg/kg daily 5 days per week
Aqueous Solubility Study = assay type: physicochemical; conditions: water, aqueous buffer, thermodynamic from solid, crystalline solid form, pH >3.0, 96 hours at room temperature
Procedure: The aqueous solubilities of compound 23 and compound W were determined according to the following procedure.
Aqueous samples of each compound were prepared as follows. Compounds were weighed (20-30 mg compound) in 4 ml clear vials prior to adding water (0.5 mL) and stirring by magnetic stirrer. 1.0N HCl was added to the suspension to adjust the pH to the desired range. After stirring for 96 hours at room temperature, the suspension was filtered through a 0.22 micron filter (Millipore, Ultrafree centrifugal filters, Durapore PVDF 0.22 μm, Cat# UFC30GVNB). The filtrate was collected and the pH measured with a pH meter.
Standard solutions of each compound were prepared according to the following procedure. […]
Aliquots of each sample and each standard solution were analyzed by HPLC analysis (Agilent 1100, injection volume 10 μL, wavelength 271 nm, column XTerra® Phenyl 5 μm, 4.6×50 mm, Part No. 186001144, mobile phase: A: 0.1% TFA in water 0.1% TFA in AcN). […] Standard curves were obtained by plotting the average of the peak area from the HPLC versus the concentrations of the standard solutions (with appropriate corrections of the weights of the standards based on total water content of the solid as determined by elemental analysis). The concentration of each sample was calculated from the peak area of the aqueous sample from the HPLC results and the slope and intercept of the standard curves. […]

[4] = Oral Range Finding Toxicity and Toxicokinetic Study in Male Cynomolgus Monkeys; assay type: in vivo, Cynomolgus monkeys (Macaca Fascicularis)
Procedure: An Oral Range Finding Toxicity and Toxicokinetic Study in Male Cynomolgus Monkeys
The first day of dosing was designated as Day 1 of the study. The actual volume administered to each animal was calculated and adjusted based on the most recent body weight of each animal.
Cage-side clinical signs (ill health, behavioral changes etc.) were recorded at least once daily during the study.
Body weights were recorded for all animals prior to group assignment and on Days 1 (prior to dosing), 3 and 7 as well as terminally prior to necropsy (fasted).
Electrocardiograms (bipolar limb leads I, II and III, and augmented unipolar leads aVR, aVL and aVF) were obtained for all monkeys once during the pre-treatment period and again on Day 7 (post-dosing).
The tracings were assessed for gross changes indicative of cardiac electrical dysfunction. The potential presence of abnormalities involving heart rate (lead II), sinus and atrioventricular rhythm or conductivity were determined. Heart rate, PR interval, QRS duration, QT and QTc intervals values were measured.
A series of 7 blood samples (approximately 0.5 mL each) were collected from each monkey on Days 1 and 7 at the following time points: predose, 30 minutes and 2, 3, 6, 12 and 24 hours post-dose. For this purpose, each monkey was bled by venipuncture and the samples were collected into tubes containing the anticoagulant, K2EDTA. Tubes were placed on wet ice until ready for processing.
Laboratory investigations (hematology, coagulation, clinical chemistry and urinalysis) were performed on all animals prior to start of treatment and prior to termination on Day 8.
A necropsy with tissue collection was conducted on all animals terminated during the study. The necropsy included examination of: • carcass and muscular/skeletal system; • all external surfaces and orifices; • cranial cavity and external surface of the brain; • neck with associated organs and tissues; and • thoracic, abdominal, and pelvic cavities with their associated organs and tissues. All abnormalities were described and recorded.
For all animals, all tissues indicated above were embedded in paraffin, sectioned and stained with hematoxylin and eosin and examined by light microscopy.

[5] = Rat IV Study (pharmacokinetics); conditions: male Sprague Dawley rats, plasma analyte = label
[6] = test system: nonreplicating M. tuberculosis; assay: Low-Oxygen-Recovery Assay (LORA) MIC; assay type: cell-based; conditions: Mycobacterium tuberculosis, read-out: LORA MIC
Source text: MIC Determination in the Low-Oxygen-Recovery Assay (LORA) for Nonreplicating M. tuberculosis
Screening for new antimicrobial agents is routinely conducted only against actively replicating bacteria. However, it is now widely accepted that a physiological state of non-replicating persistence (NRP) is responsible for antimicrobial tolerance in many bacterial infections. In tuberculosis, the key to shortening the 6-month regimen lies in targeting this NRP subpopulation. […] Cho S H, Want S, Wan B, Hwang C H, Pauli G F, Franzblau S G; “Low-Oxygen-Recovery Assay for High-Throughput Screening of Compounds against Nonreplicating Mycobacterium tuberculosis” Antimicrob Agents Chemother. 2007 April; 51(4): 1380-1385 doi: 10.1128/AAC.00055-06.

M. tuberculosis Erdman = assay: MBC assay, log killing reduction in CFU over a one month period of incubation (Table 35); assay type: cell-based; conditions: Compound 23A at 4×MIC
[7] = test system: intracellular M. tuberculosis in J774 cells; assay: Efficacy against intracellular M. tuberculosis (luciferase) in J774 cells; assay type: cell-based
[8] = test system: Non-Replicating (NRP) M. tuberculosis H37Ra; assay: Non-replicating (NRP) M. tuberculosis H37Ra (luciferase) culture assay; assay type: cell-based; conditions: Mycobacterium tuberculosis, 336 h, read on day 14
M. kansasii = assay: MIC in bacterial broth culture (7H9 with ADC, visual or resazurin); assay type: cell-based; conditions: Mycobacterium kansasii, Table 31, duplicate values
[9] = Mycobacterium tuberculosis, H37RA, read-out: MIC, Broth
[10] = doses up to 200 mg/kg/day for 7 days
[11] = Compound W dosed IV bolus 1 mg/kg in D5W
[12] = Compound W dosed IV bolus 5 mg/kg in D5W

NC(=O)c1cnccn1 [Pyrazinamide, pyrazine-2-carboxamide]
MIC [1]: > 2.5 µg/mL
MIC (M. tuberculosis; [9]): > 12.3 µg/mL
MIC (M. tuberculosis H37Rv [2]; M. tuberculosis H37Rv, normal pH): 250 µg/mL (≈ 2030 µM)
MIC (M. tuberculosis H37Rv [2]; pH 6.0): 50 µg/mL (≈ 406 µM)
Log cfu (lung) (M. tuberculosis H37Rv [3]; 4 weeks of treatment): 4.22
Log Reduction (M. tuberculosis H37Rv [3]; 4 weeks, vs untreated control): 1.78

CCNC(=O)Nc1nc2cc(-c3cnc(C(C)(C)O)nc3)c(F)c([C@H]3CCCO3)c2[nH]1 [Compound 23, 1-ethyl-3-[6-fluoro-5-[2-(1-hydroxy-1-methyl-ethyl)pyrimidin-5-yl]-7-[(2R)-tetrahydrofuran-2-yl]-1H-benzimidazol-2-yl]urea]
solubility at 96 h (Aqueous Solubility Study): < 1 µg/mL
clinical signs, body weights, electrocardiography, clinical pathology, organ weights [4, 10]: no clinical signs, or changes in body weights, electrocardiography parameters, clinical pathology parameters, or organ weights
macroscopic or microscopic findings [4, 10]: no macroscopic or microscopic findings
no observed effect level (NOEL) ([4]; oral gavage once per day for 7 days): 200 mg/kg/day
exposures for different dosage levels ([4]; toxicokinetics): dose related
AUCextrap [5, 11]: 310 ng·h/mL
Cl_obs [5, 11]: 54.9 mL/min/kg
Vss_obs [5, 11]: 3.8 L/kg
AUCextrap [5, 12]: 3060 ng·h/mL
Cl_obs [5, 12]: 27.3 mL/min/kg
Vss_obs [5, 12]: 4.08 L/kg

COc1c(N2C[C@@H]3CCCN[C@@H]3C2)c(F)cc2c(=O)c(C(=O)O)cn(C3CC3)c12 [Moxifloxacin, 1-cyclopropyl-7-[(1S,6S)-2,8-diazabicyclo [4.3.0]non-8-yl]-6-fluoro-8-methoxy-4-oxo-quinoline-3-carboxylic acid]
MIC [6]: > 40 µg/mL
Log Reduction (cfu) (M. tuberculosis Erdman; day 0 of incubation): 0 Log
Log Reduction (cfu) (M. tuberculosis Erdman; day 1 of incubation): 0.4 Log
Log Reduction (cfu) (M. tuberculosis Erdman; day 2 of incubation): 1.6 Log
Log Reduction (cfu) (M. tuberculosis Erdman; day 3 of incubation): 2.8 Log
Log Reduction (cfu) (M. tuberculosis Erdman; day 7 of incubation): 2.2 Log
Log Reduction (cfu) (M. tuberculosis Erdman; day 14 of incubation): 1.4 Log
Log Reduction (cfu) (M. tuberculosis Erdman; day 21 of incubation): 0.0 Log
Log Reduction (cfu) (M. tuberculosis Erdman; day 28 of incubation): 0.2 Log
IC50 [1]: 0.33 µg/mL (≈ 0.822 µM)
MIC [1]: 0.33 µg/mL (≈ 0.822 µM)
IC50 ([7]; Mycobacterium tuberculosis, J774, 120 h; read-out: Mtb CDC1551 in J774 Cells (IC50)): 0.21 µg/mL (≈ 0.523 µM)
MIC (M. tuberculosis; Mycobacterium tuberculosis, ERDMAN, Table 31, Mtb Erdman, duplicate values, read-out: MIC): 0.03 µg/mL (≈ 0.0747 µM)
MIC (M. tuberculosis; Mycobacterium tuberculosis, ERDMAN, Table 32, M. tuberculosis Erdman, […], duplicate values, read-out: MIC): 0.03 µg/mL (≈ 0.0747 µM)
MIC (M. tuberculosis; Mycobacterium tuberculosis, ERDMAN, Table 33, M. tuberculosis strain Erdman, read-out: MIC): 0.03 µg/mL (≈ 0.0747 µM)
MIC (M. tuberculosis; Mycobacterium tuberculosis, GN9, Table 31, Mtb GN9, duplicate values, read-out: MIC): 0.03 µg/mL (≈ 0.0747 µM)
MIC (M. tuberculosis; Mycobacterium tuberculosis, GN9, Table 33, M. tuberculosis strain GN9, read-out: MIC): 0.03 µg/mL (≈ 0.0747 µM)
MIC (M. tuberculosis; [9]): 0.12 µg/mL (≈ 0.299 µM)
MIC (M. tuberculosis; Mycobacterium tuberculosis, H37RV, Table 31, Mtb H37Rv, duplicate values, read-out: MIC): 0.03 µg/mL (≈ 0.0747 µM)
MIC (M. tuberculosis; Mycobacterium tuberculosis, H37RV, Table 33, M. tuberculosis strain H37Rv, read-out: MIC): 0.06 µg/mL (≈ 0.149 µM)
MIC (M. tuberculosis; Mycobacterium tuberculosis, Table 31, Mtb CDC1551, duplicate values, read-out: MIC): 0.015 µg/mL (≈ 0.0374 µM)
MIC (M. tuberculosis; Mycobacterium tuberculosis, Table 31, Mtb HN878 (Beijing-Type), duplicate values, read-out: MIC): 0.03 µg/mL (≈ 0.0747 µM)
MIC (M. tuberculosis; Mycobacterium tuberculosis, Table 32, […], duplicate values, read-out: MIC): 8 µg/mL (≈ 19.9 µM)
MIC (M. tuberculosis; Mycobacterium tuberculosis, Table 33, M. tuberculosis strain 210, read-out: MIC): 0.015 µg/mL (≈ 0.0374 µM)
MIC (M. tuberculosis; Mycobacterium tuberculosis, Table 33, M. tuberculosis strain AH13, read-out: MIC): 0.5 µg/mL (≈ 1.25 µM)
MIC (M. tuberculosis; Mycobacterium tuberculosis, Table 33, M. tuberculosis strain AH517, read-out: MIC): 0.03 µg/mL (≈ 0.0747 µM)
MIC (M. tuberculosis; Mycobacterium tuberculosis, Table 33, M. tuberculosis strain BW9, read-out: MIC): 0.008 µg/mL (≈ 0.0199 µM)
MIC (M. tuberculosis; Mycobacterium tuberculosis, Table 33, M. tuberculosis strain C913, read-out: MIC): 0.03 µg/mL (≈ 0.0747 µM)
MIC (M. tuberculosis; Mycobacterium tuberculosis, Table 33, M. tuberculosis strain CDC1551, read-out: MIC): 0.03 µg/mL (≈ 0.0747 µM)
MIC (M. tuberculosis; Mycobacterium tuberculosis, Table 33, M. tuberculosis strain H10460, read-out: MIC): 0.25 µg/mL (≈ 0.623 µM)
MIC (M. tuberculosis; Mycobacterium tuberculosis, Table 33, M. tuberculosis strain H13571, read-out: MIC): 0.03 µg/mL (≈ 0.0747 µM)
MIC (M. tuberculosis; Mycobacterium tuberculosis, Table 33, M. tuberculosis strain HH915336, read-out: MIC): 0.015 µg/mL (≈ 0.0374 µM)
MIC (M. tuberculosis; Mycobacterium tuberculosis, Table 33, M. tuberculosis strain LL, read-out: MIC): 0.015 µg/mL (≈ 0.0374 µM)
MIC (M. tuberculosis; Mycobacterium tuberculosis, Table 33, M. tuberculosis strain MC19062, read-out: MIC): 0.015 µg/mL (≈ 0.0374 µM)
MIC (M. tuberculosis; Mycobacterium tuberculosis, Table 33, M. tuberculosis strain Rv ATCC, read-out: MIC): 0.06 µg/mL (≈ 0.149 µM)
MIC (M. tuberculosis; Mycobacterium tuberculosis, Table 33, M. tuberculosis strain W10, read-out: MIC): 0.03 µg/mL (≈ 0.0747 µM)
MIC (M. tuberculosis; Mycobacterium tuberculosis, Table 33, M. tuberculosis strain W33, read-out: MIC): 0.5 µg/mL (≈ 1.25 µM)
MIC (M. tuberculosis; Mycobacterium tuberculosis, Table 33, M. tuberculosis strain Wg565, read-out: MIC): 1 µg/mL (≈ 2.49 µM)
MIC (M. tuberculosis; Table 31, Mtb GN9, duplicate values): 0.015 µg/mL (≈ 0.0374 µM)
MIC (M. tuberculosis; Table 31, Mtb HN878 (Beijing-Type), duplicate values): 0.015 µg/mL (≈ 0.0374 µM)
MIC (M. tuberculosis; Table 32, M. tuberculosis Erdman, […], duplicate values): 0.015 µg/mL (≈ 0.0374 µM)
MIC (M. tuberculosis; Table 32, […], duplicate values): 4 µg/mL (≈ 9.96 µM)
Erdman (MIC) (M. tuberculosis; Table 36, Mtb Erdman, unit inferred): 0.03 µg/mL
IC50 [8]: 6 µg/mL (≈ 14.9 µM)
MIC (M. kansasii; M. kansasii 303): 0.03 µg/mL (≈ 0.0747 µM)
MIC (M. kansasii; M. kansasii 316): 0.03 µg/mL (≈ 0.0747 µM)
MIC (M. kansasii; M. kansasii 379): 0.03 µg/mL (≈ 0.0747 µM)

COc1c(N2CCNC(C)C2)c(F)cc2c(=O)c(C(=O)O)cn(C3CC3)c12 (centres unmarked) [Gatifloxacin, 1-cyclopropyl-6-fluoro-8-methoxy-7-(3-methylpiperazin-1-yl)-4-oxo-quinoline-3-carboxylic acid]
MIC [6]: 3.6 µg/mL (≈ 9.59 µM)
IC50 [1]: 0.2 µg/mL (≈ 0.533 µM)
IC50 ([7]; Mycobacterium tuberculosis, J774, 120 h, read-out: Mtb CDC1551 in J774 Cells (IC50)): 0.94 µg/mL (≈ 2.5 µM)
Erdman (MIC) (M. tuberculosis): 0.25 µg/mL
